Test results: US20060014643A1, “Combinations of aryloxyphenoxypropionates and safeners and their use for increasing weed control” (BAYER CROPSCIENCE GMBH, priority 2002, published 2006)

What was measured:
Format in all cases: in vivo
[1] = tested on: Setaria lutescens; experiment: Post-emergence weed control in spring wheat (field trial); conditions: visual scoring 4 weeks after treatment vs untreated, rate g a.i./ha: (A1) 112, (A3) 1680, (B1) 28, mixtures 112 + 28 and 1680 + 28, 300 l water/ha
Procedure: (§1) Spring wheat was grown outdoors on plots under natural outdoor conditions, and seeds of typical harmful plants were laid out. Treatment with a mixture of a (hetero)aryloxyphenoxypropionate herbicide and the safener mefenpyr-diethyl using standard formulations of the active ingredients at an application rate of 300 l water per hectare was carried out after the harmful plants had emerged and the spring wheat was in the growth stage between 3 and 5 leaves for the plants. The effect of the composition was assessed 4 weeks after treatment by scoring visually in comparison with untreated controls.

[2] = tested on: Triticum aestivum (spring wheat); experiment: Phytotoxicity (crop damage) to spring wheat (field trial); conditions: spring wheat at 3-5 leaves, visual scoring 4 weeks after treatment, rate g a.i./ha: (A1) 112, (A3) 1680, (B1) 28, mixtures 112 + 28 and 1680 + 28
Procedure: as §1

[3] = tested on: Alopecurus myosuroides; experiment: Post-emergence weed control in winter wheat (field trial); conditions: visual scoring 112 days after treatment vs untreated, rate g a.i./ha: (A5) 37.3, (B1) 10, (A5)+(B1) 37.3 + 10, 300 l water/ha
Procedure: (§2) Winter wheat was grown outdoors on plots under natural outdoor conditions, and seeds of typical harmful plants were laid out. […] The effect of the composition was assessed 112 days after treatment by scoring visually in comparison with untreated controls.

[4] = tested on: Triticum aestivum (winter wheat); experiment: Phytotoxicity (crop damage) to winter wheat (field trial); conditions: winter wheat at 3-5 leaves, visual scoring 112 days after treatment, rate g a.i./ha: (A5) 37.3, (B1) 10, (A5)+(B1) 37.3 + 10
Procedure: as §2

Compound	Weed control (%) of SETLU [1] [%]	Phytotox (%) of TRZAS [2] [%]	Weed control (%) of ALOMY [3] [%]	Phytotox (%) of TRZAW [4] [%]
CC(Oc1ccc(Oc2ccc(Cl)cc2Cl)cc1)C(=O)O (racemic) [(A3), (RS)-2-[4-(2,4-dichlorophenoxy)phenoxy]propionic acid]	45	12		
C#CCOC(=O)[C@@H](C)Oc1ccc(Oc2ncc(Cl)cc2F)cc1 [(A1), prop-2-ynyl (R)-2-[4-(5-chloro-3-fluoropyridin-2-yloxy)phenoxy]propionate]	68	20		
CCOC(=O)[C@@H](C)Oc1ccc(Oc2nc3ccc(Cl)cc3o2)cc1 [(A5), ethyl (R)-2-[4-(6-chloro-1,3-benzoxazol-2-yloxy)phenoxy]propionate]			69	10
CCOC(=O)C1=NN(c2ccc(Cl)cc2Cl)C(C)(C(=O)OCC)C1 (stereo not shown) [(B1), ethyl 1-(2,4-dichlorophenyl)-5-(ethoxycarbonyl)-5-methyl-2-pyrazoline-3-carboxylate]	0	0	0	0
